From ChEMBL document CHEMBL1201862, “PubChem BioAssay data set” (2004)
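Assay format: 96-well plates, 48-hour exposure. Abbreviation: GI50, concentration required for 50% inhibition of growth.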 Calls of active or inactive are those of the source. Cut-off read from the data, not from the text of the source: active = GI50 up to about 1.1 µM and inactive = higher.

Columns and labels:
Assay in all cases: NCI anticancer screen, dose series, 48 h
BT-549 = tested on: BT-549
HCT-15 = tested on: HCT-15
HOP-62 = tested on: HOP-62
SF-539 = tested on: SF-539
SF-268 = tested on: SF-268
T47D = tested on: T47D
HL-60 = tested on: HL-60
HT-29 = tested on: HT-29
COLO 205 = tested on: COLO 205
HCT-116 = tested on: HCT-116
SW-620 = tested on: SW-620
SR = tested on: SR
DU-145 = tested on: DU-145
SK-MEL-2 = tested on: SK-MEL-2
A498 = tested on: A498
PC-3 = tested on: PC-3
NCI-H460 = tested on: NCI-H460
NCI-H226 = tested on: NCI-H226
Hs-578T = tested on: Hs-578T
CAKI-1 = tested on: CAKI-1

Measured: GI50

CC(C)(C)NC(=O)CCC1C(C(=O)NC(C)(C)C)C2(Cl)C(Cl)=C(Cl)C1(Cl)C2(Cl)Cl (centres undefined)
> 100 µM: HCT-15
inactive: BT-549 > 100 µM | HOP-62 > 100 µM | SF-539 > 100 µM | SF-268 > 100 µM | T47D > 100 µM | HL-60 > 100 µM | HT-29 > 100 µM | COLO 205 > 100 µM | HCT-116 > 100 µM | SW-620 > 100 µM | SR > 100 µM | DU-145 > 100 µM | SK-MEL-2 > 100 µM | A498 > 100 µM | PC-3 > 100 µM | NCI-H460 > 100 µM | NCI-H226 > 100 µM | Hs-578T > 100 µM

CN(C)CCNC1=Nc2ccccc2C(=S)N2CSCC12 (centres undefined)
inactive: BT-549 > 100 µM | HOP-62 > 100 µM | SF-268 > 100 µM | T47D > 100 µM | CAKI-1 > 100 µM | HT-29 > 100 µM | COLO 205 > 100 µM | HCT-116 > 100 µM | SW-620 > 100 µM | SR > 100 µM | DU-145 74.8 µM | SK-MEL-2 > 100 µM | A498 > 100 µM | PC-3 > 100 µM | NCI-H460 > 100 µM | NCI-H226 > 100 µM | Hs-578T > 100 µM
> 100 µM: HCT-15

O=C(/C=C1\C[C@H]2C=Nc3ccccc3C(=O)N2C1)NCCCCCNC(=O)/C=C1\C[C@H]2C=Nc3ccccc3C(=O)N2C1
inactive: BT-549 12.6 µM | HOP-62 14.2 µM | SF-539 19.1 µM | SF-268 6.49 µM | T47D 2.53 µM | HL-60 2.4 µM | CAKI-1 2.6 µM | HT-29 11.6 µM | HCT-116 6.14 µM | SW-620 2.1 µM | SR 1.6 µM | DU-145 13.5 µM | SK-MEL-2 15.1 µM | A498 19.1 µM | PC-3 13.8 µM | NCI-H460 18.3 µM | NCI-H226 > 51.5 µM | Hs-578T 22.6 µM
active: COLO 205 0.532 µM
3.44 µM: HCT-15

Cc1c(NC(=S)NN)c(=O)n(-c2ccccc2)n1C
> 100 µM: HCT-15
inactive: BT-549 > 100 µM | HOP-62 > 100 µM | SF-539 > 100 µM | SF-268 > 100 µM | T47D > 100 µM | HL-60 > 100 µM | CAKI-1 > 100 µM | HT-29 > 100 µM | COLO 205 > 100 µM | HCT-116 > 100 µM | SW-620 > 100 µM | SR > 100 µM | DU-145 > 100 µM | SK-MEL-2 > 100 µM | A498 > 100 µM | PC-3 > 100 µM | NCI-H460 > 100 µM | NCI-H226 1.58 µM | Hs-578T 93.8 µM

CCN(CC)C(=S)SS(=O)(=O)c1ccc(NC(C)=O)cc1
active: SR 0.0226 µM
inactive: BT-549 39.3 µM | HOP-62 18.1 µM | SF-268 28.9 µM | T47D 24.9 µM | HL-60 23.9 µM | CAKI-1 18.8 µM | HT-29 24.8 µM | COLO 205 25.6 µM | HCT-116 16 µM | SW-620 16.7 µM | DU-145 22.6 µM | SK-MEL-2 41.7 µM | A498 > 55.6 µM | PC-3 27.1 µM | NCI-H460 26.2 µM | NCI-H226 > 59.7 µM | Hs-578T 45 µM
30.9 µM: HCT-15

CCNC(=S)N/N=C1\C(=O)Nc2ccc([N+](=O)[O-])cc21
49.3 µM: HCT-15
inactive: BT-549 > 100 µM | HOP-62 27.7 µM | SF-539 30.2 µM | SF-268 44.7 µM | T47D 31.6 µM | HL-60 92.9 µM | CAKI-1 11.9 µM | HT-29 49.5 µM | COLO 205 > 100 µM | HCT-116 27.7 µM | SW-620 50.2 µM | SR 31.3 µM | DU-145 33 µM | SK-MEL-2 > 100 µM | A498 22.9 µM | PC-3 97.5 µM | NCI-H460 20.4 µM | NCI-H226 97.7 µM | Hs-578T 98.9 µM

COc1ccc(NC(C)=O)c(C(=O)CCNC(C)=O)c1
> 100 µM: HCT-15
inactive: BT-549 > 100 µM | SF-539 > 100 µM | SF-268 > 100 µM | T47D > 100 µM | HL-60 > 100 µM | CAKI-1 > 100 µM | HT-29 > 100 µM | COLO 205 > 100 µM | HCT-116 > 100 µM | SW-620 > 100 µM | SR > 100 µM | DU-145 > 100 µM | SK-MEL-2 > 100 µM | A498 > 100 µM | PC-3 > 100 µM | NCI-H460 > 100 µM | NCI-H226 > 100 µM | Hs-578T > 100 µM

COC(=O)C(COC(C)=O)NC(=O)/C=C/c1ccc(O)c(OC(C)=O)c1 (centres undefined)
inactive: BT-549 > 100 µM | HOP-62 49.3 µM | SF-539 15.1 µM | SF-268 > 100 µM | T47D 31.2 µM | CAKI-1 66.2 µM | HT-29 78.2 µM | COLO 205 > 100 µM | HCT-116 39.1 µM | SW-620 31 µM | SR 5.81 µM | DU-145 58.6 µM | SK-MEL-2 > 100 µM | A498 > 100 µM | PC-3 99.1 µM | NCI-H460 60.3 µM | NCI-H226 > 100 µM | Hs-578T > 100 µM
8.97 µM: HCT-15

C#C[C@]1(O)CC[C@H]2[C@@H]3CCC4=C/C(=N\OCCN(CC)CC)CC[C@]4(C)[C@H]3CC[C@@]21C
5.6 µM: HCT-15
active: HL-60 0.586 µM
inactive: BT-549 10 µM | HOP-62 3.58 µM | SF-539 4.26 µM | SF-268 2.92 µM | T47D 6.3 µM | CAKI-1 7.93 µM | HT-29 3.74 µM | COLO 205 3.02 µM | HCT-116 3.44 µM | SW-620 7.18 µM | SR 2.94 µM | DU-145 10.4 µM | SK-MEL-2 3.27 µM | A498 10.8 µM | PC-3 3.18 µM | NCI-H460 5.08 µM | NCI-H226 11.9 µM | Hs-578T 3.18 µM

COc1ccc(C(C#N)NCCCCCCNC(C#N)c2ccc(OC)cc2)cc1 (centres undefined)
> 100 µM: HCT-15
inactive: BT-549 > 100 µM | HOP-62 > 100 µM | SF-539 > 100 µM | SF-268 > 100 µM | T47D > 100 µM | HL-60 > 100 µM | CAKI-1 > 100 µM | HT-29 > 100 µM | COLO 205 > 100 µM | HCT-116 > 100 µM | SW-620 > 100 µM | SR > 100 µM | DU-145 > 100 µM | SK-MEL-2 > 100 µM | A498 > 100 µM | PC-3 > 100 µM | NCI-H226 > 100 µM | Hs-578T > 100 µM

CCCCOC(=O)Nc1ccc(S(=O)(=O)Nc2ccccc2Cl)cc1
inactive: BT-549 22.5 µM | HOP-62 21.7 µM | SF-539 17.6 µM | SF-268 16.9 µM | T47D 26.5 µM | HL-60 16.9 µM | CAKI-1 19.5 µM | HT-29 21 µM | COLO 205 20.7 µM | HCT-116 22.4 µM | SW-620 14.1 µM | SR 4.04 µM | DU-145 30.3 µM | SK-MEL-2 18.1 µM | A498 12.8 µM | PC-3 24.9 µM | NCI-H460 18.2 µM | Hs-578T 21.5 µM
21.3 µM: HCT-15

COCCNc1cncc(C(N)=O)c1
> 100 µM: HCT-15
inactive: BT-549 > 100 µM | HOP-62 > 100 µM | SF-539 > 100 µM | SF-268 > 100 µM | T47D 65.6 µM | HL-60 > 100 µM | CAKI-1 > 100 µM | HT-29 > 100 µM | COLO 205 > 100 µM | HCT-116 > 100 µM | SW-620 > 100 µM | SR > 100 µM | DU-145 > 100 µM | SK-MEL-2 > 100 µM | A498 > 100 µM | PC-3 > 100 µM | NCI-H460 > 100 µM | NCI-H226 > 100 µM | Hs-578T > 100 µM

CN(CC(=O)Nc1ccccc1C(=O)O)c1ccccc1
67.1 µM: HCT-15
inactive: BT-549 > 100 µM | HOP-62 > 100 µM | SF-539 > 100 µM | SF-268 > 100 µM | T47D > 100 µM | HL-60 > 100 µM | CAKI-1 > 100 µM | HT-29 > 100 µM | HCT-116 84.3 µM | SW-620 90.2 µM | SR > 100 µM | DU-145 > 100 µM | A498 > 100 µM | PC-3 > 100 µM | NCI-H460 > 100 µM | NCI-H226 > 100 µM | Hs-578T > 100 µM

Cc1c(/C=N\NC(=S)NCCNC(=S)N/N=C\c2c(C)n(C)n(-c3ccccc3)c2=O)c(=O)n(-c2ccccc2)n1C
inactive: BT-549 > 100 µM | HOP-62 > 100 µM | SF-539 > 100 µM | SF-268 > 100 µM | T47D > 100 µM | CAKI-1 > 100 µM | HT-29 > 100 µM | COLO 205 > 100 µM | HCT-116 > 100 µM | SW-620 > 100 µM | SR > 100 µM | DU-145 > 100 µM | SK-MEL-2 22.4 µM | A498 > 100 µM | PC-3 > 100 µM | NCI-H460 > 100 µM | NCI-H226 > 100 µM | Hs-578T > 100 µM
> 100 µM: HCT-15
